Target: T1, human lipocalin 2 (hNGAL) mutein SEQ ID NO: 35 (Homo sapiens, UniProt P80188, A60T/C107S/D97H/K145I/K154W/K93R/L123T/L56V/L90R/N85Q/Q48H/Q69G/R101D/R92I/S147R/S88D/T74A/W99Y/Y126Q/Y152I/Y72N)
T1 construct: made in house; host or cells: E. coli
Experiment: SPR (Biacore T200), mutein SEQ ID NO: 35
Assay type: binding
Details: 2 μM for all analytes
Procedure: In a Surface Plasmon Resonance (SPR) based assay a Biacore T200 instrument (GE Healthcare) was used to measure the binding affinity of muteins to pyoverdine I succinyl, -succinamid, -α-ketoglutaryl with complexed iron ion or to pyoverdine II succinyl, -succinamid, -α-ketoglutaryl with complexed iron ion or to pyoverdine III succinyl, -succinamid, -α-ketoglutaryl with complexed iron ion. Muteins selected for binding to pyoverdines and negative control (SEQ ID NO: 64) were biotinylated for 2 h at room temperature applying an appropriate excess of EZ-Link NHS-PEG4-Biotin (Thermo, Cat#21329) followed by separation of non-reacted Biotin using a Zeba Spin Desalting Plate (Thermo, Cat#21329) according to the manufactures instructions.
In the SPR affinity assay, biotinylated muteins and negative control were captured on a sensor chip CAP using the Biotin CAPture Kit (GE Healthcare): Sensor Chip CAP is pre-immobilized with an ssDNA oligo. Undiluted Biotin CAPture Reagent (streptavidin conjugated with the complementary ss-DNA oligo) was applied at a flow rate of 2 μl/min for 300 s. Subsequently, 1 μg/ml to 100 μg/mL of biotinylated muteins or negative control were applied for 300 s at a flow rate of 5 μl/min. The reference channel was loaded with Biotin CAPture Reagent only.
Applying a flow rate of 30 μl/min, a single cycle or multi cycle kinetics approach was used with a sample contact time of 120-180 s and a dissociation time of 900-2400 s. […] After ligand immobilization, for analysis using single cycle kinetics all 4-5 concentrations of Pvd were applied consecutively in ascending order before the dissociation was monitored. For analysis using multi cycle kinetics 4 dilutions of Pvd were applied, each followed a dissociation phase. All measurements were performed at 25° C. […] Data were evaluated with Biacore T200 Evaluation software (V 1.0). Double referencing was used. A 1:1 Binding model was used to fit the raw data.

T1 sequence (P80188 21-198 with the stated changes): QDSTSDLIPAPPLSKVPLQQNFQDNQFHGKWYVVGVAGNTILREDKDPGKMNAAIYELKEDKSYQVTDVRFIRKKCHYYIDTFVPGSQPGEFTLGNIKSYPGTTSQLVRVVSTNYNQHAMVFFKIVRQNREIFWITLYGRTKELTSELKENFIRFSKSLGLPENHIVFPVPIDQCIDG

| SMILES | specificity and crossreactivity (binding) |
| --- | --- |
| CN1[C@@H]([C@H]2CSC(c3ccccc3O)=N2)SC[C@H]1C(=O)O [Pyochelin, pyochelin] | absence of binding |
| CC(=O)N(O)CCCCCNC(=O)CCC(=O)N(O)CCCCCNC(=O)CCC(=O)N(O)CCCCCN [Desferoxamin, desferoxamine, reference compound] | absence of binding |
